Literature values in patent US20180092930A1, “METHODS OF DIAGNOSING AND TREATING ABIRATERONE ACETATE- GLUCOCORTICOID -RESISTANT OR -SENSITIVE METASTATIC CASTRATION RESISTANT PROSTATE CANCER” (Janssen Pharmaceutica NV, priority 2016, published 2018).
Where two headings read alike, the source gives them in different places.

Tests used:
[1] = test system: CRPC; settings: pooled patients treated with AA or enzalutamide
[2] = test system: castration-resistant prostate cancer

Compound	OS ([1]; ARV7+ at baseline)	OS ([1]; ARV7- at baseline)	PSA response rate ([2]; ARV7-negative patients)	PSA-PFS, median ([2]; ARV7-negative patients)	clinical or radiographic progression-free survival, median ([2]; ARV7-negative patients)	overall survival, median ([2]; ARV7-negative patients)	PSA response rate ([2]; ARV7-positive patients)	PSA-PFS, median ([2]; ARV7-positive patients)	clinical or radiographic progression-free survival, median ([2]; ARV7-positive patients)	overall survival, median ([2]; ARV7-positive patients)
CC(=O)O[C@H]1CC[C@@]2(C)C(=CC[C@@H]3[C@@H]2CC[C@]2(C)C(c4cccnc4)=CC[C@@H]32)C1 [abiraterone acetate]	8 months	not reached	68%	not reached	not reached	not reached	0%	1.3 months	2.3 months	10.6 months
CNC(=O)c1ccc(N2C(=S)N(c3ccc(C#N)c(C(F)(F)F)c3)C(=O)C2(C)C)cc1F [enzalutamide]	8 months	not reached								
